“Also recorded” adds a separate entry of the source.
Key:
[1] = system: E. coli; test: lysogenic bacterial induction (ILB) assay; type: cell-based
Source text: Analytical high pressure liquid chromatography, Bacillus subtilis zone of inhibition, lysogenic bacterial induction and P388 mouse tumor assays are used throughout the above-described separation processes to monitor relative levels of anandimycin and co-produced substances.

[2] = system: P-388 leukemia; test: transplantable mouse tumor P-388 leukemia; type: in vivo, mouse (CDF1 female mice); details: filtrate of acetone trituration
Method: Anandimycin was also tested against the transplantable mouse tumor P-388 leukemia. The methodology used generally followed the protocols of the National Cancer Institute (Cancer Chemotherapy Rep., Part 3, 3, 1-103 (1972). The essential experimental details are given at the bottom of the following table. Two different dose regimens are tested: single dose on day 1 and three doses given on days 1, 5 and 9. The optimal dose was 64 mg/kg. single dose.
Tumor inoculum: 10^6 ascites cells implanted
Host: CDF1 .female. mice
Evaluation: MST = median survival
Effect: % T/C = (MST treated/MST control) ×
Criteria: % T/C ≥ 125 considered significant antitumor
Tox: […] 4/6 mice alive on day 5
AWC = average weight gain (treatedcontrol) in grams (on day 4)

[3] = antimicrobial / antibiotic activity (in words); type: cell-based

COc1c(O)c2c(c3cc(C(=O)N4CCc5c4c(O)c(OC)c4[nH]c(C(=O)N6CC7CC78C6=CC(=O)c6[nH]cc(C)c68)cc54)[nH]c13)CCN2C(N)=O (stereo not drawn) [rachelmycin, reference compound]
lysogenic bacterial induction activity [1]: active; also recorded: possesses both antibiotic and lysogenic bacterial induction activity
activity in the P388 mouse tumor system [2]: active
antimicrobial / antibiotic activity [3]: possesses both antibiotic and lysogenic bacterial induction activity

Reference: patent publication US4360595A, “Fermentation process for producing anandimycin” (Bristol-Myers Company, priority 1981, dated 1982)
